Measured values reported in patent publication US8496927B2, “CD20 negatively converted B-cell malignant lymphoma cell line and utilization thereof” (National University Corporation Nagoya University, priority 2006, dated 2013).

Key:
[1] = tested on: DNMT1 (DNA methyltransferase 1); experiment: DNMT1 expression in RRBL1 cells by western blotting; assay type: cell-based, human; conditions: day 1 after Aza injection
Experimental: (§1) Subsequently, changes with time regarding CD20 mRNA expression and CD20 protein expression were examined (FIG. 7B) Aza was injected to a culture solution on day 0, and cultured at 37° C. for 24 hours (day 1). Then, the cells were washed and further cultured for 1 to 6 days (day 2 to day 7). RNA and protein were extracted from the cells after culturing, and subjected to analyses by western blotting (using anti-CD20 antibody, anti-IRF4 antibody, anti-PU.1 antibody, anti-DNMT1 antibody, and […]) and RT-PCR.
(§2) IRF4 and Pu.1 are transcriptional factors that have been reported to bind to a CD20 gene promoter. […] DNMT1 (DNA methyltransferase 1) has reported to be decomposed by Aza.

IRF4 and Pu.1 = IRF4 and Pu.1 expression in RRBL1 cells by western blotting; assay type: cell-based, human; conditions: time course after Aza injection
Experimental: as §1, §2

CD20 mRNA = CD20 mRNA expression in RRBL1 cells by RT-PCR; assay type: cell-based, human; conditions: for induction of CD20 mRNA: added to RRBL1, analyzed with elapse of time (summary)
Experimental: (§3) 5-aza-2′-deoxycytidine (SIGMA, hereinafter abbreviated as “Aza”) was injected to a culture solution of RRBL1 cells, and the cells were washed after 24 hours. After culturing for further 2 days, RNA and the whole-cell lysate was extracted from the cells, and subjected to analyses by RT-PCR and western blotting. As a result, CD20 mRNA expression increased after the Aza treatment (FIG. 7A, RT, lane 2). In the western blotting analysis, the CD20 protein expression was observed after the Aza treatment (FIG. 7A, IB lane 2).
as §1

CD20 protein = CD20 protein expression in RRBL1 cells by western blotting; assay type: cell-based, human; conditions: for induction of CD20 protein: added to RRBL1, analyzed with elapse of time (summary)
Experimental: as §3, §1
Aza and TSA (Trichostatin: histone deacetylase inhibitor) were injected singly or in combination to a culture supernatant of RRBL1 cells. The cells were washed after one day from Aza injection. After further cultured for 2 days, protein was extracted from the cells. In the TSA injected group, protein was extracted from the cells at the point of 24 hours from TSA injection. For the group injected in combination use, Aza was first injected and cultured for 1 day. The cells after washed were cultured for 1 day, then TSA was injected thereto, and further, the cells were dissolved after the elapse of one day to extract protein. Thus obtained each sample was subjected to SDS-PAGE, and western blotting using an anti-CD20 antibody and an anti-GAPDH antibody was then performed.

RRBL1 cells [2] = experiment: Rituximab resistance test: number of living cells after culture with rituximab; assay type: cell-based, human; conditions: rituximab 500 mg/ml, 10% FCS, 37° C. for 2 days
Experimental: (§4) Rituximab ([…]) was added to a PRMI1640 culture solution containing 10% FCS and the solution was cultured at 37° C. for 2 days, and the number of living cells was measured. Further, Raji cells were cultured under the same conditions (control group). […] Thus, it was confirmed that the RRBL1 cells indicates rituximab resistance in vitro.

RRBL1 cells [3] = experiment: Number of living RRBL1 cells treated with Aza and TSA, cultured with or without rituximab; assay type: cell-based, human; conditions: cultured for 2 days
Excerpt: RRBL1 cells (untreated group) and RRBL1 cells treated with Aza and TSA (treated group) were respectively cultured for 2 days in the absence of rituximab (●, ▪) or in the presence of rituximab (♦, ▴), and the number of living cells were compared (FIG. 8C).

Raji cells = experiment: Rituximab resistance test: number of living cells after culture with rituximab; assay type: cell-based; conditions: rituximab 500 mg/ml, 10% FCS, 37° C. for 2 days
Experimental: as §4

CD20 positive lymphoma = conditions: Non-patent document 10; cited from earlier work
[4] = tested on: CD20 positive malignant lymphoma; experiment: Use experience of rituximab-containing chemotherapy, Hospital of Nagoya University; assay type: in vivo, human
Experimental: Cases of CD20 positive malignant lymphoma in which rituximab-containing chemotherapy was carried out in the Hospital of Nagoya University, School of Medicine are shown. The rituximab-containing chemotherapies were performed in 124 cases in about 5 years from […] to 2006, and in 36 cases (29%) among 124 cases, recurrence or relapse were observed. In 19 cases, about half of these cases, tissue biopsies were carried out again, and in 5 cases (26.3% among the cases subjected to rebiopsy), negative conversion of CD20 expression was confirmed. Prognoses of the cases where CD20 was negatively converted were extremely bad, and patients in all the cases died within 1 year after the confirmation of negative conversion.
In about 5 years from September 2001, CD20 positive malignant lymphoma cases subjected to chemotherapy including rituximab in this facility was 124 cases (FIG. 13), and 36 cases (29.0%) in the 124 cases were recurred or relapsed.

[5] = RRBL1 cells, Aza on day 0, washed day 1, cultured to day 7
[6] = RRBL1 cells, washed after 24 hours, cultured further 2 days

In the case of Nc1ncn([C@H]2C[C@H](O)[C@@H](CO)O2)c(=O)n1 [Aza, 5-aza-2′-deoxycytidine], the DNMT1 expression [1] is reported as “significant decrease”, the “IRF4 and Pu.1 expression” value (IRF4 and Pu.1) is reported as “tendency of temporal increase” and the “CD20 mRNA expression, change with time” value (CD20 mRNA; [5]) is reported as “the same tendency as the CD20 protein expression”. For the same molecule, the “CD20 mRNA expression (RT-PCR)” value (CD20 mRNA; [6]) was “increased”, the “induction of CD20 mRNA” value (CD20 mRNA) was “possible” and the “culturing time by which CD20 expression is induced” value (CD20 protein; RRBL1) was 1 to 7 days. The “CD20 protein expression, change with time” value (CD20 protein; [5]) was “increased from day 1”, the “day on which CD20 protein expression level reached peak” value (CD20 protein; [5]) was 3 days and the “CD20 protein expression (western blotting)” value (CD20 protein; [6]) was “observed”. For the same molecule, the “induction of CD20 protein” value (CD20 protein) was “possible”.

For CC(/C=C/C(=O)NO)=C\[C@@H](C)C(=O)c1ccc(N(C)C)cc1 [TSA, Trichostatin A], the “induction of CD20 mRNA” value (CD20 mRNA) was “possible” and the “induction of CD20 protein” value (CD20 protein) was “possible”.

With rituximab the “proliferation (number of living cells)” value (RRBL1 cells [2]) was “repression of proliferation was not observed”, the “proliferation (number of living cells) in the presence of rituximab” value (RRBL1 cells [3]) was “significantly inhibited” and the “proliferation (number of living cells)” value (Raji cells) was “significantly repressed”. The “patients showing rituximab resistance” value (CD20 positive lymphoma) was 5 out of 48, the “cases with negative conversion (disappearance or decrease) of CD20 expression” value ([4]; 5 of 19 recurred/relapsed cases subjected to rebiopsy, FCM and immunostaining) was 26.3% and the “cases recurred or relapsed” value ([4]; 36 of 124 cases given rituximab-containing chemotherapy, about 5 years from 2001) was 29%.
